This is an account of results in ChEMBL document CHEMBL5614450, “SAR Study of 4,8-Disubstituted Pyrimido[5,4-d]pyrimidines Exhibiting Antitrypanosomal and Antileishmanial Activity” (ACS Med Chem Lett, 2024).

pIC50: −log10 of the molar value.

Data set [1] deals with Leishmania infantum. Briefly: Anti-leishmanial activity against promastigote stage of Leishmania infantum MHOM/MA/67/ITMAP-263 assessed as inhibition of parasite growth at 10 uM incubated for 72 hrs by resazurin-dye based assay. The data set is classed as functional. In general terms: Alamar Blue is a resazurin reagent that responds to reducing activity.
The nature of data set [2]: Selectivity index, ratio of CC50 for cytotoxicity against human THP-1 cells to IC50 for anti-trypanosomal activity against trypomastigote blood stage of Trypanosoma brucei Lister 427. The data set is classed as toxicity, cell-based. The settings on record: read-out: Ratio CC50/IC50.
The subject of data set [3] is Leishmania infantum. The experiment in a line: Anti-leishmanial activity against promastigote stage of Leishmania infantum MHOM/MA/67/ITMAP-263 assessed as inhibition of parasite growth incubated for 72 hrs by resazurin-dye based assay. The data set is classed as functional, organism-based. Conditions: MHOM/MA/67/ITMAP-263, 72 h.
The target in the next data set is hERG (KCNH2) (Homo sapiens, UniProt Q12809). The experiment in a line: Displacement of tracer from hERG extracted from membrane at 10 uM incubated for 2 hrs by fluorescence polarization assay. It counts as toxicity, cell membranes. Conditions: hERG membrane preparation, probe tracer (not named). For orientation: Block of hERG is tested as a sign of cardiac risk.
Sequence of hERG (KCNH2) (Q12809 whole entry): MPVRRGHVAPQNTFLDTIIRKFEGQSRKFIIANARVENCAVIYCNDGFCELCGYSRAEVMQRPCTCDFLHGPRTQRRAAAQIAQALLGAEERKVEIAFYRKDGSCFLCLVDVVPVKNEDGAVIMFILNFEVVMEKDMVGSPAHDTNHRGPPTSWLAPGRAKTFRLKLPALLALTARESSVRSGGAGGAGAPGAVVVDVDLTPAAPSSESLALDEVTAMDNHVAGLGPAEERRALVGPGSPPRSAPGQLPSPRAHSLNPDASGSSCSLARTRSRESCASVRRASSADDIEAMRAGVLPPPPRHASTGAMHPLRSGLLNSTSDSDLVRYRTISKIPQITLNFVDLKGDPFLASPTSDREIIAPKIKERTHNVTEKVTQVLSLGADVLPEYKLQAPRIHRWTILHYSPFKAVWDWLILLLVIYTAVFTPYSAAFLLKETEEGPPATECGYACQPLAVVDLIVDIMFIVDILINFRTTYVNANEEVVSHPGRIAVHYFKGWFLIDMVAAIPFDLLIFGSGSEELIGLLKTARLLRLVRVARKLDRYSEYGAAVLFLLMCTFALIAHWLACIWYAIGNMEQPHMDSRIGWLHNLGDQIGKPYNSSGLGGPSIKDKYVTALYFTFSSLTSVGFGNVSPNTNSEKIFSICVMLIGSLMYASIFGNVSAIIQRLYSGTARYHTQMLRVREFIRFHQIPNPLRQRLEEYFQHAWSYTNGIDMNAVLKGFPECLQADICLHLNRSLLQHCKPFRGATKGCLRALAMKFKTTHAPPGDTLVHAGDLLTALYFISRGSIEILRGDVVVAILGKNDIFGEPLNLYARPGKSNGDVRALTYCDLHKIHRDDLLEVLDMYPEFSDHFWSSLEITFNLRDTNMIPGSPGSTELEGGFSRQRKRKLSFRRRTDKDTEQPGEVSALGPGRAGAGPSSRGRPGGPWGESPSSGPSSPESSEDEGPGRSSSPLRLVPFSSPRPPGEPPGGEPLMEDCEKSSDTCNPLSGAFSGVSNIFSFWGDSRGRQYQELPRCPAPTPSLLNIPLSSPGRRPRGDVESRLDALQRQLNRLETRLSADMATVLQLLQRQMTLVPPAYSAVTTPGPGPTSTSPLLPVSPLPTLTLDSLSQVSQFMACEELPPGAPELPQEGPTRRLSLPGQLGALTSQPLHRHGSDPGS

The nature of data set [4]: Cytotoxicity against human A549 cells assessed as reduction in cell viability at 10 uM incubated for 24 hrs by Cell-Titer Glo luminescence assay. Conditions: read-out: INH. The data set is classed as toxicity, cell-based.
Data set [5] can be described thus: Selectivity index, ratio of CC50 for cytotoxicity against human THP-1 cells to IC50 for anti-leishmanial activity against promastigote stage of Leishmania infantum MHOM/MA/67/ITMAP-263. The data set is classed as toxicity, cell-based. Conditions: read-out: Ratio CC50/IC50.
Data set [6] concerns Leishmania infantum. Briefly: Anti-leishmanial activity against luciferase expressing intracellular amastigote stage of Leishmania infantum MHOM/MA/67/ITMAP-263 infected in human THP-1 cells assessed as inhibition of parasite growth at 10 uM incubated for 72 hrs by Steady-Glo luciferase assay. The data set is classed as functional. Conditions: MHOM/MA/67/ITMAP-263, THP-1.
The subject of another data set is Trypanosoma brucei. The experiment in a line: Anti-trypanosomal activity against trypomastigote blood stage of Trypanosoma brucei Lister 427 assessed as inhibition of parasite growth incubated for 72 hrs by resazurin-dye based assay. The data set is classed as functional, organism-based. The settings on record: Lister 427, 72 h.
Another data set addresses CYP3A4 (Homo sapiens, UniProt P08684). The experiment in a line: Inhibition of human CYP3A4 expressed in insect cell microsomes at 10 uM preincubated for 20 mins followed by NADP+ and substrate addition and measured after 10 mins by fluorescence based analysis. The data set is classed as ADME, Microsome. The settings on record: recombinant human CYP3A4 expressed in insect cell microsomes, time 30 min.

Data set [7] in a line: Cytotoxicity against human HEK293 cells assessed as reduction in cell viability at 10 uM incubated for 24 hrs by Cell-Titer Glo luminescence assay. Conditions: read-out: INH. It counts as toxicity, cell-based.
Data set [8] can be described thus: Cytotoxicity against human THP-1 cells assessed as reduction in cell viability incubated for 72 hrs by MTT assay. It counts as toxicity, cell-based. A general note: Formazan colour is commonly taken as a measure of viable cells.
For data set [9], the system named is Leishmania infantum. The experiment in a line: Anti-leishmanial activity against luciferase expressing intracellular amastigote stage of Leishmania infantum MHOM/MA/67/ITMAP-263 infected in human THP-1 cells assessed as inhibition of parasite growth incubated for 72 hrs by Steady-Glo luciferase assay. It counts as functional, organism-based. Conditions: MHOM/MA/67/ITMAP-263, THP-1, 72 h.

Data set [10] in a line: Selectivity index, ratio of CC50 for cytotoxicity against human THP-1 cells to IC50 for anti-leishmanial activity against luciferase expressing intracellular amastigote stage of Leishmania infantum MHOM/MA/67/ITMAP-263 infected in human THP-1 cells. It counts as toxicity, cell-based. The settings on record: read-out: Ratio CC50/IC50.

Sequence of CYP3A4 (P08684 whole entry): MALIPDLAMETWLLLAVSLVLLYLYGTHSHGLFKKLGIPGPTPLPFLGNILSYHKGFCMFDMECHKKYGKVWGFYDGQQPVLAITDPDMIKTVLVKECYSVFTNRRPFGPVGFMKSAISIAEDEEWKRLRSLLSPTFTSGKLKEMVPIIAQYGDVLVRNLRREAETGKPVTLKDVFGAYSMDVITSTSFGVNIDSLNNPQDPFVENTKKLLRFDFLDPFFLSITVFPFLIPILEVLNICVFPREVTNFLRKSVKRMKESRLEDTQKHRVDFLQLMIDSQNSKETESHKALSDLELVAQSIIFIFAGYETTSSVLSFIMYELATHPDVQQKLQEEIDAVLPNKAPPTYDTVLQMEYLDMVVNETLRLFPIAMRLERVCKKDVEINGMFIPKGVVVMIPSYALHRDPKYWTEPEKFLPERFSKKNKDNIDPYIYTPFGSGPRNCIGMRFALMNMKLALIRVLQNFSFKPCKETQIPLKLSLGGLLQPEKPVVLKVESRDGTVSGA

In general, inhibition refers to the share of the control response that was lost under treatment. The pIC50 is the IC50 on a negative log10 scale, so that one unit is a factor of ten. Broadly, the CC50 is the concentration giving 50% cytotoxicity. `COc1cccc(Nc2ncnc3c(N/N=C/c4ccc(OC)c(OC)c4)ncnc23)c1`: the inhibition at 10 µM was 98% with Leishmania infantum [1] and 34% with Leishmania infantum [6]. The selectivity ratio was over 38 in [2] and over 35 in data set [5]. Besides, the pIC50 in the data set on Leishmania infantum [3] was 5.84; with Trypanosoma brucei, 5.88; in the data set on Leishmania infantum [9] it was under 4.70. On hERG (KCNH2), this compound returned an inhibition at 2 h, 10 µM of 35%. In addition, the cytotoxicity at 24 h, 10 µM was 40% in data set [4] and 18% in [7]. In addition, the inhibition at 10 min, 10 µM at CYP3A4 stood at 0%. In addition, the CC50 at 72 h in data set [8] is over 50000 nM.

On to `COc1cccc(Nc2ncnc3c(N/N=C/c4ccc(O)c(O)c4)ncnc23)c1`, for which the inhibition at 10 µM is 94% with Leishmania infantum [1] and 62% in the data set with Leishmania infantum [6]. The values for the selectivity ratio in data set [2], in data set [5] and in data set [10] were over 39, 30 and 6, respectively. In addition, the pIC50 is 5.78 in the data set on Leishmania infantum [3], 5.89 in the data set on Trypanosoma brucei and 5.07 in the data set with Leishmania infantum [9]. The compound further showed an inhibition at 2 h, 10 µM at hERG (KCNH2) of 18%. Also, the cytotoxicity at 24 h, 10 µM was found to be 22% in [4] and 7% in data set [7]. Besides, the inhibition at 10 min, 10 µM on CYP3A4 came out at 2%. Also, the CC50 at 72 h in data set [8] is over 50000 nM.

As for `COc1ccc(Nc2ncnc3c(N/N=C/c4cc(O)c(O)c(O)c4)ncnc23)cc1`, the values for the inhibition at 10 µM with Leishmania infantum [1] and in the data set with Leishmania infantum [6] were 94% and 41%, respectively. The results for the selectivity ratio in data set [2] and in data set [5] were over 185 and over 502, respectively. The negative logarithm of the IC50 (pIC50) in the data set with Leishmania infantum [3] was 6.70; in the data set on Trypanosoma brucei, 6.27; in the data set with Leishmania infantum [9] it was under 4.70. The inhibition at 2 h, 10 µM at hERG (KCNH2) came to 48%. The cytotoxicity at 24 h, 10 µM in [4] amounted to 12%; in data set [7], 3%. Moreover, the inhibition at 10 min, 10 µM on CYP3A4 is 0%. Further, the CC50 at 72 h in data set [8] was over 100000 nM.

Regarding `COc1ccc(Nc2ncnc3c(N/N=C/c4ccc(OC)c(OC)c4)ncnc23)cc1`, the inhibition at 10 µM turned out to be 98% with Leishmania infantum [1] and 85% in the data set with Leishmania infantum [6]. Further, the selectivity ratio is over 41 in data set [2], over 52 in data set [5] and over 33 in data set [10]. Moreover, the negative logarithm of the IC50 (pIC50) in the data set with Leishmania infantum [3] was 5.71; with Trypanosoma brucei, 5.61; in the data set with Leishmania infantum [9], 5.52. The inhibition at 2 h, 10 µM at hERG (KCNH2) worked out at 0%. The cytotoxicity at 24 h, 10 µM was determined as 23% in [4] and 12% in [7]. Besides, the inhibition at 10 min, 10 µM on CYP3A4 stood at 0%. Besides, the CC50 at 72 h in data set [8] was over 100000 nM.

As to `CCCCCCCCCCCCCCCCOP(=O)([O-])OCC[N+](C)(C)C` [MILTEFOSINE], the inhibition at 10 µM in the data set on Leishmania infantum [1] is 97%; in the data set with Leishmania infantum [6] it was 99%. The pIC50 with Leishmania infantum [3] was 4.93; with Leishmania infantum [9], 6.15. For the same compound, the selectivity ratio in data set [5] is 2.5; in [10] it was 42.

Consider `COc1ccc(Nc2ncnc3c(N/N=C/c4ccc(O)c(O)c4)ncnc23)cc1`, for which the inhibition at 10 µM was 98% in the data set on Leishmania infantum [1] and 87% with Leishmania infantum [6]. The selectivity ratio was over 182 in [2], over 101 in data set [5] and over 32 in data set [10]. The pIC50 was 6.00 with Leishmania infantum [3], 6.26 with Trypanosoma brucei and 5.50 in the data set on Leishmania infantum [9]. This compound yielded an inhibition at 2 h, 10 µM on hERG (KCNH2) of 36%. Also, the cytotoxicity at 24 h, 10 µM was found to be 39% in data set [4] and 18% in data set [7]. Further, the inhibition at 10 min, 10 µM at CYP3A4 came to 2%. Further, in data set [8], the half-maximal cytotoxic concentration (CC50) at 72 h is over 100000 nM.

`COc1cccc(Nc2ncnc3c(NN)ncnc23)c1`: the inhibition at 10 µM is 99% in the data set with Leishmania infantum [1] and under 0% in the data set on Leishmania infantum [6]. Besides, the selectivity ratio was over 438 in data set [2] and 178 in data set [5]. For the same compound, the pIC50 was 6.55 in the data set on Leishmania infantum [3] and 6.96 with Trypanosoma brucei. Further, the inhibition at 2 h, 10 µM on hERG (KCNH2) came to 14%. Further, the results for the cytotoxicity at 24 h, 10 µM in [4] and in data set [7] were 16% and 12%, respectively. For the same compound, the inhibition at 10 min, 10 µM at CYP3A4 came out at 65%. In [8], the CC50 at 72 h is over 50000 nM.

Turning to `COc1ccc(Nc2ncnc3c(NN)ncnc23)cc1`, the inhibition at 10 µM was 99% with Leishmania infantum [1] and under 0% in the data set with Leishmania infantum [6]. Besides, the selectivity ratio is over 71 in data set [2] and 69 in data set [5]. For the same compound, the pIC50 in the data set on Leishmania infantum [3] was 6.14; in the data set on Trypanosoma brucei, 6.15. Also, at hERG (KCNH2), the inhibition at 2 h, 10 µM was 7%. The cytotoxicity at 24 h, 10 µM in data set [4] is -14%; in data set [7], -7%. The inhibition at 10 min, 10 µM at CYP3A4 worked out at 12%. Moreover, the half-maximal cytotoxic concentration (CC50) at 72 h in data set [8] was over 50000 nM.
